{
  "source": "patent US20250340529A1",
  "about": "“Heterocyclic Compounds as Immunomodulators of PD-L1 Interactions” (Ascletis BioScience Co., Ltd, priority 2021, published 2025)",
  "key": {"PD-1/PD-L1": {"molecular_target": "PD-1/PD-L1 (Homo sapiens (Human), UniProt Q9NZQ7)", "sequence (Q9NZQ7 19-238)": "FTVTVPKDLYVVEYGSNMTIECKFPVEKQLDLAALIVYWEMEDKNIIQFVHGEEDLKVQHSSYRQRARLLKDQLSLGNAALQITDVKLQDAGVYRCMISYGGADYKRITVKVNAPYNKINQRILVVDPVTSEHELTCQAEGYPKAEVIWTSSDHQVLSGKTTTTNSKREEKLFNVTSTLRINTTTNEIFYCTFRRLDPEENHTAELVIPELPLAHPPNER", "experiment": "PD-1/PD-L1 Homogeneous Time-Resolved Fluorescence (HTRF) binding assay", "conditions": "3 nM PD1, 10 nM PD-L1, 25° C., PBS pH 7.4", "method_in_brief": "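HTRF with His-tagged human PD-L1 (19-238, 10 nM) and Fc-tagged human PD-1 (25-167, 3 nM) preincubated with inhibitors 40 min in PBS pH 7.4, 0.05% Tween-20, 0.1% BSA, 1% DMSO, 25° C. Eu anti-human IgG and anti-His-APC added, 60 min; 665/620 nm ratio; IC50 from percent control activity fit.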"}, "[1]": {"molecular_target": "extracellular domains of PD-L1 (Homo sapiens (Human), UniProt Q9NZQ7)", "sequence (Q9NZQ7 19-238)": "as above", "experiment": "PD-L1 dimerization (biochemical protein-protein interaction assay)", "conditions": "PDL1-Eu and PDL1-A2, 25° C., 120 min", "protocol": "Compounds were tested in biochemical protein-protein interaction assays to determine if they can specifically dimerize the extracellular domains of PD-L1. • (1) Dilute cpd 1:3 in succession in DMSO for each column for 10±0 pts (refer to dilution plate map) • (2) Transfer 0.2 μL cpds solution in each row to 384 assay plate using Echo, each column containing 2 replicates (refer to assay plate map). • (3) Add 20 μL prepared mixture include PDL1-Eu and PDL1-A2 solution to assay plate, centrifuge at 1000 rpm for 1 min. • (4) Incubate at 25° C. for 120 min. • (5) Read fluorescence signal on Envision 2104 plate reader. • (6) Read the Ratio (665 nm/615 nm) signal on Envision. • (7) Analyze the raw data using the equation (V. Data analysis)"}, "[2]": {"system": "Hep3B-OS8-hPDL1 cells and CD3+ T cells", "experiment": "Hep3B-OS8-hPDL1 and T cells co-culture assay (IFN-γ by ELISA)", "format": "cell-based", "conditions": "Homo sapiens, T-cell, 72 hours, read-out: Tumor and T Cell EC50 (nm)", "protocol": "a. Hep3B-OS8-hPDL1 and T Cells Co-Culture Assay\n• 1. Hep3B-OS8-hPDL1 cells were cultured in 1640 medium supplemented with 10% fetal bovine serum, 1% penicillin and streptomycin, in which 100 μg/mL G418 and Hygromycin B were also added. • 2. Hep3B-OS8-hPDL1 cells were harvested and treated with 10 μg/mL mitomycin C at 37° C. for 1.5 h, and the cells were then washed thoroughly with PBS for four times. • 3. Cells were re-suspended with RPMI 1640 medium containing 10% FBS and the cell density was adjusted to 5E5 cells/mL. • 4. Cells were seeded into 96-well flat bottom plate (2.5E4 cells/50 μL/well). b. CD3+ T Cells Isolation (30 mL Blood) • 5. The human blood sample from an individual donor is diluted by the same volume of sterile PBS, for instance add 25 mL sterile PBS into 25 mL fresh whole blood and mix sufficiently by gentle shake. • 6. Transfer 15 mL Lymphoprep medium into a new 50 mL centrifuge tube. • 7. Add the diluted blood sample as soft as possible onto the surface of the Ficoll medium to make sure there is a clear dividing line between the two liquids, and the volume ratio between Ficoll and diluted blood (30 mL) is 1:2. • 8. Move the tube gently to centrifuge, at 1000×g, 25 min, 20° C., with the acceleration (5) and Min deceleration (0) settings during the centrifugation. • 9. Four interfaces in all could be observed after the centrifugation, which are layers of plasma, mononuclear cells, the Ficoll medium and RBCs from top to bottom, and move the tube as gently as possible so as keep the four interfaces separated. Absorb and transfer the second layer of mononuclear cells into another new sterile centrifuge tube carefully, and absorb certain volume of plasma instead of the Ficoll medium if inevitable. • 10. Add sterile PBS of the three times the volume of PBMCs in the tube with PBMC. • 11. Wash the cells twice with 5-10 mL PBS before cell counting with cytometer. Centrifuge at 350×g, 10 min, 20° C. With the acceleration (5) and deceleration (5) settings during the centrifugation. • 12. Resuspend the cells with recommended medium and adjust the density of the PBMCs to the final concentration of 5E7 cells/mL. • 13. Isolate CD3+ T cells with EasySep™ Human T Cell Isolation Kit (STEMCELL Technologies #17951), and the cells were seeded into 96-well flat bottom plate (5E4 cells/100 μL/well). c. Compounds solutions preparation • 14. Prepare the Compounds dilutions in RPMI 1640 medium with 10% FBS according to the Layout. 15. Add compounds into each well in a volume of 50 μL. {3 compounds (GLC01-258, GLC01-269, GLC01-465) in 7 concentrations (0.03, 0.1, 0.3, 1, 3, 10 and 30 μM) and 6 compounds (GLC01-411, GLC01-292, GLC01-445, GLC01-475, GLC01-470 and GLC01-468) in the same concentration (1 μM)}. • 16. […]"}},
  "data": [
    {"smiles": "O=C(O)[C@H](CO)NCCN1C(=O)COc2cc(-c3cccc(-c4cccc(-c5ccc6c(c5)OCC(=O)N6CCN[C@@H](CO)C(=O)O)c4Cl)c3Cl)ccc21", "note": "[Compound 465]", "values": [
      {"measurement": "IC50", "setting": "PD-1/PD-L1", "result": 3.58, "unit": "nM"},
      {"measurement": "EC50", "setting": "[1]", "result": 77.9, "unit": "nM"},
      {"measurement": "EC50", "setting": "[2]", "result": 1.2, "unit": "nM"}
    ]},
    {"smiles": "O=C1COc2cc(-c3cccc(-c4cccc(-c5ccc6c(c5)OCC(=O)N6C[C@H]5CCCN5)c4Cl)c3Cl)ccc2N1C[C@H]1CCCN1", "note": "[Compound 529]", "values": [
      {"measurement": "IC50", "setting": "PD-1/PD-L1", "result": 8.62, "unit": "nM"},
      {"measurement": "EC50", "setting": "[2]", "result": 325, "unit": "nM"}
    ]}
  ]
}
